Five compounds from paper PMC3602459 (2013) can be followed below.

For assay [1], the system named is tRNA^phe (yeast) (RNA, tRNA) GCGGAUUUAGCUCAGUUGGGAGAGCGCCAGACUGAAGAUCUGGAGGUCCUGUGUUCGAUCCACAGAAUUCGCACCA
In words: absorbance titration, Benesi-Hildebrand. Particulars: 10 mM Na+; citrate-phosphate, pH 7.1, 20 °C; apparent; tRNA in nucleotide phosphates; per base.

Assay [2] shares this test system. As to the kind of experiment: fluorescence titration, Benesi-Hildebrand. Conditions: 10 mM Na+; citrate-phosphate, pH 7.1, 20 °C; apparent; tRNA in nucleotide phosphates; per base.
For assay [3] the test system is unchanged. In words: UV melting, 260 nm. Particulars: 10 mM Na+; citrate-phosphate, pH 7.0; 50 µM tRNA nucleotides; saturating alkaloid; average Tm 50 °C alone; per base.
Assay [4] shares this test system. As to the kind of experiment: ITC. Conditions: 10 mM Na+; citrate-phosphate, pH 7.0, 20 °C; only background heats, binding negligible.
The test system is the same in assay [5]. In words: ITC, single-site fit. Particulars: 10 mM Na+; citrate-phosphate, pH 7.0, 20 °C; tRNA concentration in nucleotide phosphates; per base.
Assay [6] has the same test system. In words: fluorescence titration, Scatchard, McGhee-von Hippel cooperative fit. Particulars: 10 mM Na+; citrate-phosphate, pH 7.1, 20 °C; overall cooperative constant; tRNA in nucleotide phosphates; per base.
Assay [7] shares this test system. In words: absorbance titration, Scatchard, McGhee-von Hippel cooperative fit. Conditions: 10 mM Na+; citrate-phosphate, pH 7.1, 20 °C; overall cooperative constant; tRNA in nucleotide phosphates; per base.

Each structure is given as a SMILES string.

Consider `COc1ccc2cc3[n+](cc2c1O)CCc1cc2c(cc1-3)OCO2`, for which the results for the KBH in assay [1] and in assay [2] were 4300 M⁻¹ and 4200 M⁻¹, respectively. For the same compound, in assay [3], the ΔTm stood at 2.0 °C. In assay [4], the binding entry is “weak”.
Take `COc1ccc2cc3[n+](cc2c1OC)CCc1cc2c(cc1-3)OCO2`: the Ka in assay [5] is 0.86 ± 0.01 × 10^5 M^-1. For the same compound, the Kiω in assay [6] came out at 177000 M⁻¹; in assay [7], 169000 M⁻¹. In addition, the KBH in assay [1] turned out to be 114000 M⁻¹; in assay [2], 122000 M⁻¹. Also, the shift in melting temperature (ΔTm) in assay [3] is 4.5 °C.
Turning to `COc1ccc2cc3[n+](cc2c1OCC(=O)NCCc1ccccc1)CCc1cc2c(cc1-3)OCO2`, the Ka in assay [5] is listed as 8.20 ± 0.04 × 10^5 M^-1. The results for the Kiω in assay [6] and in assay [7] were 941000 M⁻¹ and 922000 M⁻¹, respectively. Besides, the results for the KBH in assay [1] and in assay [2] were 874000 M⁻¹ and 889000 M⁻¹, respectively. Further, the ΔTm in assay [3] was 8.0 °C.
Take `COc1ccc2cc3[n+](cc2c1OCC(=O)NCc1ccccc1)CCc1cc2c(cc1-3)OCO2`: the Ka in assay [5] is reported as 7.17 ± 0.03 × 10^5 M^-1. Further, the Kiω in assay [6] is 658000 M⁻¹; in assay [7], 640000 M⁻¹. The figures for the KBH in assay [1] and in assay [2] were 613000 M⁻¹ and 644000 M⁻¹, respectively. For the same compound, the ΔTm in assay [3] was found to be 7.0 °C.
`COc1ccc2cc3[n+](cc2c1OCC(=O)Nc1ccccc1)CCc1cc2c(cc1-3)OCO2`: the Ka in assay [5] was 4.67 ± 0.03 × 10^5 M^-1. Besides, the Kiω in assay [6] came to 427000 M⁻¹; in assay [7] it was 434000 M⁻¹. Further, the results for the KBH in assay [1] and in assay [2] were 425000 M⁻¹ and 404000 M⁻¹, respectively. For the same compound, the ΔTm in assay [3] was 6.5 °C.
